Data as given in PubChem BioAssay AID1552 (Sanford-Burnham Center for Chemical Genomics, 2009).
The source made the active and inactive calls. No rule for the calls is given here.

biological target: Ubiquitin-conjugating enzyme E2 N (Homo sapiens) (UniProt P61088); assay: UBE2N binders by NMR, biophysical, purified protein (AID 1552); details: NMR binding to purified UBE2N
Sequence (P61088 whole entry, looked up): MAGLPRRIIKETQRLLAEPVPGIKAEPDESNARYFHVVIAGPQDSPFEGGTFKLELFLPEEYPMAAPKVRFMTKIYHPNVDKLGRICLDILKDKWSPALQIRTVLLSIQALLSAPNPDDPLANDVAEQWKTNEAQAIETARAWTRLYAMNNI

`NC(C(=O)O)C(O)C(=O)O` (stereo not given) was tested. Which Kd did it give?
The Kd was > 4 mM (inactive).

Which Kd does the source give for `c1ccc(CCc2nc(-c3ccncc3)no2)cc1` here?
The Kd was > 4 mM (inactive).

`NCc1cccc(-n2cccc2)c1` was tested. Which Kd did it give?
Its Kd is > 4 mM (inactive).

How did the Kd turn out when `O=C1c2ccccc2C(=O)N1CCc1ccccn1` was run?
The Kd was > 4 mM (inactive).

How did the Kd turn out when `O=C1CC(=O)N(c2ccccc2)C(=O)N1` was run?
The Kd was > 4 mM (inactive).

With `O=C(O)/C=C/c1ccc(O)c(O)c1` as the compound, how does the Kd read?
Its Kd is > 4 mM (inactive).

For `CC(C)(C)c1cc(CN)c(C(=O)O)o1`, which Kd is on record?
The Kd was > 4 mM (inactive).

`Cc1ccc(SCc2nc(-c3cccnc3)no2)cc1` was tested. Which Kd did it give?
Its Kd is > 4 mM (inactive).

Which Kd does the source give for `O=C1CSC(c2ccccc2)N1` (stereo not given) here?
Its Kd is > 4 mM (inactive).

Which Kd does the source give for `CC(=O)Nn1c(=O)[nH]c2ccccc2c1=O` here?
The Kd was > 4 mM (inactive).

Which Kd does the source give for `N[C@@H](Cc1ccc(O)c(O)c1)C(=O)O` here?
Its Kd is > 4 mM (inactive).

How did the Kd turn out when `Nc1ccc(-n2cccn2)cc1` was run?
The Kd was > 4 mM (inactive).

With `CSc1nc(C)c(Oc2ccccc2)c(=O)n1C` as the compound, how does the Kd read?
Its Kd is > 4 mM (inactive).

For `CNC(Cc1c[nH]c2ccccc12)C(=O)O` (stereo not given), which Kd is on record?
Its Kd is > 4 mM (inactive).

With `O=C(c1ccncc1)N1CCN(C(=O)c2ccncc2)CC1` as the compound, how does the Kd read?
The Kd was > 4 mM (inactive).

With `O=c1cc(CO)oc(CN2CCCCC2)c1O` as the compound, how does the Kd read?
The Kd was > 4 mM (inactive).

Which Kd does the source give for `COc1c(O)cc2oc3cc(O)c(CC=C(C)C)c(O)c3c(=O)c2c1CC=C(C)C` here?
Its Kd is > 4 mM (inactive).

`Cc1cc(NC(=O)c2cc(C)on2)no1` was tested. Which Kd did it give?
The Kd was > 4 mM (inactive).

With `CNC(=O)C1COc2ccccc2O1` (stereo not given) as the compound, how does the Kd read?
Its Kd is > 4 mM (inactive).

Which Kd does the source give for `CCC(C)C(=O)O[C@H]1[C@H](O)C2C(CN3CC(C)CCC3[C@@]2(C)O)C2C[C@]34O[C@]5(O)C(OC(=O)C(C)(O)CC)CC[C@@]3(C)C5C(OC(C)=O)[C@@H](OC(C)=O)C4[C@@]21O` (stereo not given in full) here?
The Kd was > 4 mM (inactive).

With `O=C(O)CC1C(=O)NCCN1Cc1cccs1` (stereo not given) as the compound, how does the Kd read?
The Kd was > 4 mM (inactive).

For `CC(=O)Nc1ccc(Oc2nc(C)cc(C)n2)cc1`, which Kd is on record?
The Kd was > 4 mM (inactive).

How did the Kd turn out when `COc1ccc2c(c1)OCC(Cc1ccc(OC)c(OC(C)=O)c1)C2=O` (stereo not given) was run?
The Kd was > 4 mM (inactive).

With `Cc1noc(C)c1CSc1nc2ccccc2[nH]1` as the compound, how does the Kd read?
Its Kd is > 4 mM (inactive).

With `NC(=O)c1oc2ccccc2c1N` as the compound, how does the Kd read?
Its Kd is > 4 mM (inactive).

With `O=c1c2ccccc2nc(-c2ccco2)n1-c1nccs1` as the compound, how does the Kd read?
The Kd was > 4 mM (inactive).

How did the Kd turn out when `CC(=O)Nc1ccc(NC(C)=O)c(C(F)(F)F)c1` was run?
The Kd was > 4 mM (inactive).

How did the Kd turn out when `CC(C)(C)c1ccc(SCC(N)=O)cc1` was run?
Its Kd is > 4 mM (inactive).

Which Kd does the source give for `CCCn1c(S(=O)(=O)O)nc2ccccc21` here?
The Kd was > 4 mM (inactive).

With `CC(=O)c1c(C)nc(-c2ccc(F)cc2)n1O` as the compound, how does the Kd read?
The Kd was > 4 mM (inactive).

For `O=C(NCc1ccccc1)c1cnsn1`, which Kd is on record?
The Kd was > 4 mM (inactive).

Which Kd does the source give for `COC(=O)c1cn(C(=O)OC)c2ccccc12` here?
The Kd was > 4 mM (inactive).

`COC(=O)Nc1nc2c(C)cccc2s1` was tested. Which Kd did it give?
The Kd was > 4 mM (inactive).

For `CCOc1nc(C)ccc1-c1noc(-c2ccco2)n1`, which Kd is on record?
Its Kd is > 4 mM (inactive).

Which Kd does the source give for `Cc1ccc(SCCN2C(=O)NC(C)(C)C2=O)cc1` here?
The Kd was > 4 mM (inactive).

With `CN1C(=O)/C(=C/c2ccccc2O)NC1=S` as the compound, how does the Kd read?
Its Kd is > 4 mM (inactive).

Which Kd does the source give for `CC(C)CC(=O)NC1CCSC1=O` (stereo not given) here?
Its Kd is > 4 mM (inactive).

`CCOC(=O)C1C(=O)C2CCN1CC2` (stereo not given) was tested. Which Kd did it give?
Its Kd is > 4 mM (inactive).

For `CC(=O)NCc1nc2ccccc2[nH]1`, which Kd is on record?
The Kd was > 4 mM (inactive).

With `COC(=O)CCSCC(=O)Nc1nccs1` as the compound, how does the Kd read?
The Kd was > 4 mM (inactive).

Which Kd does the source give for `Cc1noc(-c2ccccc2)c1CO` here?
Its Kd is > 4 mM (inactive).

For `O=C(O)c1ccc(-c2cccs2)s1`, which Kd is on record?
The Kd was > 4 mM (inactive).

`Fc1ccc(N2CCNCC2)cc1` was tested. Which Kd did it give?
Its Kd is > 4 mM (inactive).

`Cc1cc(C)n(CCCC(=O)O)n1` was tested. Which Kd did it give?
The Kd was > 4 mM (inactive).

`Cc1nc(-c2cccc(N)c2)cs1` was tested. Which Kd did it give?
Its Kd is > 4 mM (inactive).

How did the Kd turn out when `Nc1cc(F)nc(F)n1` was run?
The Kd was > 4 mM (inactive).

With `Cc1ccc(C(=O)Nc2ccncc2)o1` as the compound, how does the Kd read?
The Kd was > 4 mM (inactive).

`COC(=O)C(O)c1ccccc1` (stereo not given) was tested. Which Kd did it give?
Its Kd is > 4 mM (inactive).

For `OCc1ccc2nonc2c1`, which Kd is on record?
Its Kd is > 4 mM (inactive).

`COc1cc(C(C)=O)ccc1OCC(O)Cn1ccnc1` (stereo not given) was tested. Which Kd did it give?
The Kd was > 4 mM (inactive).

With `Cc1noc(C)c1C(=O)Nc1cccnc1` as the compound, how does the Kd read?
The Kd was > 4 mM (inactive).

For `Cc1ccc(C(=O)n2cnnc2N)cc1C`, which Kd is on record?
Its Kd is > 4 mM (inactive).

With `Nc1nc2ccc(S(N)(=O)=O)cc2s1` as the compound, how does the Kd read?
The Kd was > 4 mM (inactive).

How did the Kd turn out when `COc1ccc(NS(=O)(=O)c2ccc(N)cc2)nn1` was run?
Its Kd is > 4 mM (inactive).

With `COc1ccc(S(=O)(=O)N2CCC(C(N)=O)CC2)cc1` as the compound, how does the Kd read?
The Kd was > 4 mM (inactive).

How did the Kd turn out when `Clc1ccc(SCCn2cncn2)cc1` was run?
The Kd was > 4 mM (inactive).

`O=C(Nc1ccccc1CO)c1ccccc1F` was tested. Which Kd did it give?
Its Kd is > 4 mM (inactive).

For `CNC(=O)COc1cccc2c1CCNC2=O`, which Kd is on record?
Its Kd is > 4 mM (inactive).

`CSc1nsc(SCc2cnc(C)nc2N)n1` was tested. Which Kd did it give?
The Kd was > 4 mM (inactive).

Which Kd does the source give for `O=C(O)c1ccc(-n2ccnc2)cc1` here?
Its Kd is > 4 mM (inactive).
